#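 Cells were grown in 96-well plates and exposed to each compound for 48 hours at five concentrations; endpoints were interpolated linearly between bracketing concentrations, or set to the highest concentration if not reached. GI50 is the concentration that inhibits growth by half.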 Activity calls are given as the source filed them. Rule as the data show it: active = GI50 up to about 1.1 µM and inactive = higher.
# Assays:
# Assay in all cases: DTP human tumour cell line panel, 48 h
# HCT-15 = test system: HCT-15
# OVCAR-3 = test system: OVCAR-3
# MCF7 = test system: MCF7
# OVCAR-8 = test system: OVCAR-8
# A549 = test system: A549
# DU-145 = test system: DU-145
# OVCAR-4 = test system: OVCAR-4
# SK-OV-3 = test system: SK-OV-3
# SK-MEL-28 = test system: SK-MEL-28
# KM12 = test system: KM12
# RPMI-8226 = test system: RPMI-8226
# COLO 205 = test system: COLO 205
# UACC-257 = test system: UACC-257
# UO-31 = test system: UO-31
# PC-3 = test system: PC-3
# SW-620 = test system: SW-620
# HOP-92 = test system: HOP-92
# A498 = test system: A498
# SK-MEL-2 = test system: SK-MEL-2
# SNB-75 = test system: SNB-75
Compound,GI50 (HCT-15),GI50 (OVCAR-3),GI50 (MCF7),GI50 (OVCAR-8),GI50 (A549),GI50 (DU-145),GI50 (OVCAR-4),GI50 (SK-OV-3),GI50 (SK-MEL-28),GI50 (KM12),GI50 (RPMI-8226),GI50 (COLO 205),GI50 (UACC-257),GI50 (UO-31),GI50 (PC-3),GI50 (SW-620),GI50 (HOP-92),GI50 (A498),GI50 (SK-MEL-2),GI50 (SNB-75)
OC(c1ccccc1)(c1ccccc1)c1nccc2ccccc12,37.3 µM,17.2 µM (inactive),35.2 µM (inactive),37.8 µM (inactive),36.9 µM (inactive),41.7 µM (inactive),31.6 µM (inactive),22.5 µM (inactive),22.6 µM (inactive),35.9 µM (inactive),38.3 µM (inactive),28.1 µM (inactive),31 µM (inactive),17.8 µM (inactive),22.2 µM (inactive),,,,,
O=C1c2ccccc2C(=O)c2c(Nc3ccc4c5c(cccc35)C(=O)c3ccccc3-4)cccc21,> 100 µM,> 100 µM (inactive),,,> 100 µM (inactive),> 100 µM (inactive),> 100 µM (inactive),,,> 100 µM (inactive),,,> 100 µM (inactive),> 100 µM (inactive),> 100 µM (inactive),> 100 µM (inactive),> 100 µM (inactive),> 100 µM (inactive),> 100 µM (inactive),> 100 µM (inactive)
COc1cc([C@H]2CC(=O)C[C@H](c3cc(OC)c(OC)c(OC)c3)C23C(=O)c2ccccc2C3=O)cc(OC)c1OC,> 100 µM,57 µM (inactive),71.3 µM (inactive),40 µM (inactive),> 100 µM (inactive),> 100 µM (inactive),,37.3 µM (inactive),> 100 µM (inactive),> 100 µM (inactive),> 100 µM (inactive),> 100 µM (inactive),> 100 µM (inactive),> 100 µM (inactive),> 100 µM (inactive),> 100 µM (inactive),33.6 µM (inactive),,42.4 µM (inactive),
O=C(CCCN1CCC2(CC1)CC(=O)N(N1CCOCC1)C2=O)c1ccccc1,> 100 µM,> 100 µM (inactive),> 100 µM (inactive),> 100 µM (inactive),> 100 µM (inactive),> 100 µM (inactive),,> 100 µM (inactive),> 100 µM (inactive),> 100 µM (inactive),> 100 µM (inactive),> 100 µM (inactive),> 100 µM (inactive),> 100 µM (inactive),> 100 µM (inactive),> 100 µM (inactive),,,,> 100 µM (inactive)
CCN1C(=O)/C(=C\c2coc3ccccc3c2=O)SC1=S,39.1 µM,> 100 µM (inactive),,> 100 µM (inactive),> 100 µM (inactive),,> 100 µM (inactive),> 100 µM (inactive),> 100 µM (inactive),> 100 µM (inactive),> 100 µM (inactive),> 100 µM (inactive),> 100 µM (inactive),> 100 µM (inactive),,49.4 µM (inactive),> 100 µM (inactive),> 100 µM (inactive),> 100 µM (inactive),41.2 µM (inactive)
COc1ccc(Nc2ccc3ccccc3c2-c2c(O)ccc3ccccc23)cc1,17.6 µM,14.6 µM (inactive),11.8 µM (inactive),18.1 µM (inactive),,17.5 µM (inactive),19 µM (inactive),,13.1 µM (inactive),16.1 µM (inactive),9.68 µM (inactive),24 µM (inactive),22.1 µM (inactive),13.6 µM (inactive),15.8 µM (inactive),13.9 µM (inactive),4.16 µM (inactive),,14.4 µM (inactive),19.9 µM (inactive)
O=C(Cc1csc(N/N=C2\C(=O)Nc3ccccc32)n1)Nc1ccccc1,38.5 µM,24.2 µM (inactive),54.3 µM (inactive),21.1 µM (inactive),39.9 µM (inactive),24.9 µM (inactive),41.5 µM (inactive),30.3 µM (inactive),21 µM (inactive),29.2 µM (inactive),,55.1 µM (inactive),25 µM (inactive),25.3 µM (inactive),,33 µM (inactive),35.7 µM (inactive),40.6 µM (inactive),91.8 µM (inactive),28.5 µM (inactive)
CSC1CC2C(CC1(C)SC)C2(C)C (stereo not given),51.3 µM,37.9 µM (inactive),,39.5 µM (inactive),32.7 µM (inactive),,62.8 µM (inactive),39.9 µM (inactive),> 100 µM (inactive),48.2 µM (inactive),24.3 µM (inactive),37.3 µM (inactive),29.9 µM (inactive),19.9 µM (inactive),,> 100 µM (inactive),16.3 µM (inactive),> 100 µM (inactive),23.2 µM (inactive),23.2 µM (inactive)
Cn1c(=N)n[n+]([O-])c2ccccc21,,0.895 µM (active),2.18 µM (inactive),13 µM (inactive),7.38 µM (inactive),2.26 µM (inactive),2.48 µM (inactive),25.3 µM (inactive),,19.9 µM (inactive),,2.34 µM (inactive),2.71 µM (inactive),3.22 µM (inactive),5.6 µM (inactive),2.12 µM (inactive),,,2.22 µM (inactive),2.01 µM (inactive)
CN(C)CC1CCCC/C1=N/OC(=O)c1ccc(Cl)c(Cl)c1 (stereo not given),> 100 µM,> 100 µM (inactive),,> 100 µM (inactive),> 100 µM (inactive),,> 100 µM (inactive),> 100 µM (inactive),> 100 µM (inactive),> 100 µM (inactive),> 100 µM (inactive),> 100 µM (inactive),> 100 µM (inactive),70.6 µM (inactive),,> 100 µM (inactive),66.5 µM (inactive),> 100 µM (inactive),> 100 µM (inactive),33.3 µM (inactive)
CCCCCCCCCCCCCCCCc1c(C(=O)OC)[nH]c(=S)[nH]c1=O,> 50 µM,> 50 µM (inactive),,> 50 µM (inactive),> 50 µM (inactive),,> 50 µM (inactive),> 50 µM (inactive),> 50 µM (inactive),> 50 µM (inactive),> 50 µM (inactive),> 50 µM (inactive),> 50 µM (inactive),> 50 µM (inactive),,> 50 µM (inactive),12.1 µM (inactive),> 50 µM (inactive),> 50 µM (inactive),> 50 µM (inactive)
COc1ccc(/C(=C/n2ccnc2)C(O)c2ccc(OC)c(OC)c2)cc1OC (stereo not given),> 100 µM,> 100 µM (inactive),,> 100 µM (inactive),,,> 100 µM (inactive),> 100 µM (inactive),> 100 µM (inactive),> 100 µM (inactive),70.6 µM (inactive),> 100 µM (inactive),> 100 µM (inactive),> 100 µM (inactive),,> 100 µM (inactive),30.6 µM (inactive),68.9 µM (inactive),> 100 µM (inactive),51.9 µM (inactive)
N#Cc1ccccc1C#C/C=C\C#Cc1ccccn1,18.8 µM,4.27 µM (inactive),14.4 µM (inactive),13.1 µM (inactive),19.8 µM (inactive),28.6 µM (inactive),75.9 µM (inactive),25.1 µM (inactive),17.5 µM (inactive),,,27.4 µM (inactive),13.7 µM (inactive),15.3 µM (inactive),13.7 µM (inactive),12.6 µM (inactive),26.9 µM (inactive),,15 µM (inactive),24.8 µM (inactive)
CCCCCCCCC(=O)CCCCCCCCC(=O)O,,18.8 µM (inactive),,17.3 µM (inactive),19.7 µM (inactive),,50.2 µM (inactive),> 100 µM (inactive),36.1 µM (inactive),17.3 µM (inactive),16.7 µM (inactive),21.8 µM (inactive),> 100 µM (inactive),33.3 µM (inactive),,39.7 µM (inactive),18.9 µM (inactive),23.9 µM (inactive),36.1 µM (inactive),37.2 µM (inactive)
CCCCCCCC/C=C1\CCC(CN(C)C)C1=O (stereo not given),2.77 µM,7.18 µM (inactive),,3.23 µM (inactive),19.3 µM (inactive),,13.7 µM (inactive),17.2 µM (inactive),3.89 µM (inactive),2.31 µM (inactive),0.211 µM (active),4.16 µM (inactive),5.89 µM (inactive),11 µM (inactive),,3.33 µM (inactive),3.33 µM (inactive),16.5 µM (inactive),12 µM (inactive),5.25 µM (inactive)
O=C1C2C3C=CC(C2C(=O)N1COP(=O)(O)O)C1C2C(=O)N(COP(=O)(O)O)C(=O)C2C31 (stereo not given),> 41.3 µM,> 100 µM (inactive),,> 100 µM (inactive),> 69.7 µM (inactive),,> 100 µM (inactive),> 100 µM (inactive),> 100 µM (inactive),> 100 µM (inactive),> 46.1 µM (inactive),> 47.5 µM (inactive),> 100 µM (inactive),> 100 µM (inactive),,> 45.7 µM (inactive),> 100 µM (inactive),> 100 µM (inactive),> 100 µM (inactive),> 100 µM (inactive)
COc1ccc(C2Oc3cc(OC)c(O)c(C)c3[C@H]2C)cc1 (stereo not given in full),58.9 µM,> 100 µM (inactive),,70 µM (inactive),> 100 µM (inactive),,80.4 µM (inactive),> 100 µM (inactive),> 100 µM (inactive),> 100 µM (inactive),> 10 µM (inactive),> 100 µM (inactive),> 100 µM (inactive),17.1 µM (inactive),,66.4 µM (inactive),> 100 µM (inactive),79.4 µM (inactive),> 100 µM (inactive),7.87 µM (inactive)
